Reference: patent US8895048B2, “Templated islet cells and small islet cell clusters for diabetes treatment” (The University of Kansas, priority 2010, dated 2014)

test system: beta cells; test: Relative beta cell adhesion to biomaterial films in 96-well plates; type: cell-based, rat; conditions: attached cells 24 hours after plating and three washes, normalized to empty well; triplicate
Method: In a typical experiment, 1% stock solutions of the listed biomaterials first were prepared. Most materials dissolved in deionized water at neutral pH. […] Polymers normally soluble in water (e.g. dextran sulfate, alginate, etc.) can be cross-linked to form the film matrix. Approximately 25 μL of each stock solution was added to three individual wells in 96-well plates and left to evaporate or vacuum dried, thus, depositing a thin biomaterial film at the bottom of each well. […] Several proteins offered commercially to promote cell adhesion on well plates (e.g. fibronectin, laminin, etc.) were prescreened for cell adhesion as well.
A dilute suspension of beta cells was incubated in the 96-well plates overnight and washed three times to remove unbound beta cells. The beta cell suspension was homogeneous and equal aliquots per well were assumed to contain a similar quantity of beta cells. […] In general, mildly hydrophobic polymers performed well for adhering beta cells (Table 1).
Cell adhesion was determined by counting the number of attached cells 24 hours after plating on the biomaterial and following three washes. The counts were normalized to the number of cells that attach to a well bottom lacking a biomaterial (see empty well, control) using the following calculation: number of cells attached in the well of interest/number of cells in empty well. Each experiment was repeated in triplicate.

Substance	Relative cell adhesion
Fibronectin	3.7 ± 0.7
Gelatin	2.0 ± 0.2
Laminin	8.7 ± 0.6
